Values joined by “and” are separate entries in the source; they are usually repeats but may differ in a detail not shown here. Equal values may be shown once.
Columns and labels:
[1] = tested on: APP/PS1 mice; test: N-AS level in microglia and neuron isolated from treated mice (LC-MS/MS, Fig 4b); assay type: in vivo, mouse; details: N-AS 30 mg kg^-1 daily s.c. 8 weeks, individual values
Method: Reactions were quenched by adding equal volume of cold methanol. A 100 μl aliquot of the reaction mixture was mixed with 30 μl of distilled water containing 5 ng ml^−1 of furosemide (internal standard) for 1 min and vigorously mixed with […] of ethyl acetate for 20 min. After centrifugation at 16,000×g for 10 min, the mixtures were kept for 2 h for freezing aqueous phase. The upper ethyl acetate layer was transferred to a clean tube and evaporated to dryness under a gentle stream of nitrogen. Then, the dried extract was reconstituted in 100 µl of mobile phase and 10 µl aliquot of the solution was injected into an Agilent 6470 Triple Quad LC–MS/MS system (Agilent, Wilmington, DE) coupled with an Agilent 1260 HPLC system. […] Quantification was carried out using multiple reaction monitoring (MRM) at m/z 340.3→263.3 for N-AS and m/z 328.9→284.8 for furosemide (internal standard) in negative ionization mode and collision energy of 20 eV. […]
Adult neurons and microglia were isolated from the mice brain as previously described. […] The purity of the fractionated neurons and microglia were acutely confirmed by neuronal (NeuN, mouse, 1:200, Millipore, MAB377) and microglial (Iba1, rabbit, 1:1000, Wako, 019-19941) markers and the isolated neurons and microglia were acutely analyzed for the acetylation assay and lipid mediators metabololipidomics. […]

[2] = tested on: APP/PS1 mice; test: morphometric analysis of Aβ plaques by size (Supplementary Fig 5d); assay type: in vivo, mouse
Method: Thioflavin S (Sigma-Aldrich) staining was carried out according to previously described procedures. We used 6E10 (mouse, 1:100, Signet, SIG39300), anti-20G10 (mouse, 1:1000, provided by D. R. Howlett, GlaxoSmithKline, Harlow, Essex, UK) for Aβ42, anti-G30 (rabbit, 1:1000, provided by D. R. Howlett) for Aβ40, SMA (mouse, 1:400, Sigma-Aldrich, A2547), AT8 (mouse, 1:500, Thermo Fisher Scientific, MN1020), Caspase-3 (mouse, 1:200, Novus Biologicals, NB100-56708), ac-S565 (rabbit, 1:100), COX2 (mouse, 1:250, Thermo Fisher Scientific, 35-8200), Iba1 (rabbit, 1:500, Wako, 019-19941 and goat, Abcam, ab5076), NeuN (mouse, 1:500, Millipore, MAB177), GFAP (rabbit, 1:500, Dako, N1506 and chicken, 1:500, Abcam, ab4674), and Lamp1 (mouse, 1:200, Abcam, ab24170). The sections were analyzed with a laser-scanning confocal microscope (FV3000; Olympus) or with a BX51 microscope (Olympus). MetaMorph software (Molecular Devices) was used to quantification. Three-dimensional reconstruction of microglia was recorded and analyzed using IMARIS software (Bitplane)[11]. For the analysis of age-dependent microglial COX2^+ CX3CR1^+ cells in WT and APP/PS1 mice, COX2 (rabbit, 1:100, Abcam, ab15191) and CX3CR1 (mouse, 1:100, BioLegend, 149008) antibody were used and the images were acquired on Alexa 488 and APC Channel with performed using Operetta CLS and Analysis Software 4.5 (Perkin-Elmer).
Transgenic mouse lines over-expressing the hAPP695swe (APP) and presenilin-1M146V (PS1) mutations were originated from GlaxoSmithKline (Harlow, UK)[32] and maintained as described previously. We purchased 5×FAD mice from Jackson Labs (Stock number. 34840-JAX). Because APP/PS1 and 5xFAD mice show sex differences in disease progression, we used only male mice. To examine possible therapeutic effect of N-AS and aspirin in APP/PS1 mice, the N-AS (30 mg kg^−1, Sigma-Aldrich, 01912) was injected daily s.c. for 8 weeks to 7-months-old APP/PS1 mice until the age of 9 months, and aspirin (2 mg kg^−1, Sigma-Aldrich, A5376)[33] was administrated orally to 7-months-old APP/PS1 mice for 8 weeks. Also, to confirm possible therapeutic efficacy of N-AS in 5×FAD, the N-AS (30 mg kg^−1, Sigma-Aldrich, 01912) was injected daily s.c. for 4 weeks to 3-months-old 5×FAD mice until the age of 4 months. Block randomization method was used to allocate the animals to experimental groups. To eliminate the bias, we were blinded in experimental progress such as data collection and data analysis. Mice were housed at temperature of 22 °C and a 12 h day/12 h night cycle with free access to tap water and food pellets. All protocols were approved by the Kyungpook National University Institutional Animal Care and Use Committee.

[3] = APP/PS1 + N-AS, individual values, sFig 5d, in % (unit assumed)

Question: What does the source list for `CCCCCCCCCCCCC/C=C/[C@@H](O)[C@H](CO)NC(C)=O` [N-AS, N-((2S,3R,E)-1,3-Dihydroxyoctadec-4-en-2-yl)acetamide]?
Answer: N-AS quantification (Fig 4b) ([1]; Microglia of APP/PS1 mice): 8.217 and 7.5949 and 7.58 and 7.906 and 7.587 and 7.743; N-AS quantification (Fig 4b) ([1]; Neuron of APP/PS1 mice): 2.188 and 3.557 and 2.872 (3×) and 3.215; Aβ plaques by size, 25-50mM [2, 3]: 2.008 and 5.136 and 3.485 and 2.167 and 5.808 and 4.496 and 5.407 and 0.9834 and 1.041; Aβ plaques by size, <25mM [2, 3]: 96.4567 and 90.0482 and 94.697 and 95.0162 and 89.7245 and 91.9498 and 90.3491 and 98.0585 and 97.8053; Aβ plaques by size, >50mM [2, 3]: 1.535 and 4.815 and 1.818 and 2.8169 and 4.468 and 3.555 and 4.244 and 0.9581 and 1.154; medium (25–50 μm) and large-sized (>50 μm) plaques ([2]; N-AS vs vehicle APP/PS1): significant reduction of medium (25–50 μm) and large-sized (>50 μm) plaques; number of small (<25 μm) plaques ([2]; N-AS vs vehicle APP/PS1): significantly increased number of small (<25 μm) plaques

From paper PMC7217877, “N-AS-triggered SPMs are direct regulators of microglia in a model of Alzheimer’s disease” (Nature Communications, 2020)
